The target in experiment [1] is T1, PLA2G16 (Homo sapiens, UniProt P53816).
T1 construct: Hexa-His (N); made in house; host or cells: E. coli BL21(DE3)
T1 sequence (P53816 1-162): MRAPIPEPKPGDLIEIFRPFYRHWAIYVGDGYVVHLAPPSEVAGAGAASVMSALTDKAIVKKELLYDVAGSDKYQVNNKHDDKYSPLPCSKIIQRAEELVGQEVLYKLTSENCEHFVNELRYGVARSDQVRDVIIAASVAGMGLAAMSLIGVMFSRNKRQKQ
Briefly: Enzyme activity assay for PLA2G16 (Red/Green BODIPY PC-A2 fluorescence). Type of experiment: biochemical. Particulars: His-tagged PLA2G16, 4 min pre-incubation, compound 2 nM to 50 μM; first symbol in parentheses. The text has this:
Purification and Enzyme Activity Assay for PLA2G16
A cDNA for PLA2G16 (NM_007069) was custom-synthesized by Genscript (Piscataway, USA) and inserted into a pET-based bacterial expression vector [Moffatt, B. A. and Studier, F. W. (1986) J. Mol. Biol. 189, 113-130; Rosenberg, A. H., Lade, B. N., Chui, D., Lin, S., Dunn, J. J., and Studier, F. W. (1987) Gene 56, 125-135], enabling the expression of N-terminally Hexa-His-tagged PLA2G16. E. coli BL21(DE3) (Agilent) were transformed with pET-His-PLA2G16 according to the manufacturer's instructions and plated on Carbenicillin-containing agar plates (final concentration: 100 μg/mL). A single clone was inoculated in 100 mL LB medium supplemented with 100 μg/mL Carbenicillin and the inoculated culture was grown at 37° C. overnight in a rotary shaker. On the next day, the bacterial culture was diluted in LB medium supplemented with 100 μg/mL Carbenicillin (30 mL overnight culture in 800 mL total culture volume). Bacteria were grown at 37° C. until the OD600 reached 0.6. Gene expression was induced by addition of 1 mM isopropyl-β-D-thiogalactopyranosid (IPTG) for 2 h at 18° C. Subsequently, bacteria were harvested by centrifugation (15 min; 10,000×g; 4° C.) and frozen at −80° C. The bacterial pellet was resuspended in Buffer A (50 mM Tris/HCl pH 7.5, 500 mM NaCl, 5% glycerol, 5 mM β-Mercaptoethanol and 1 mM PMSF) and lysed by addition of 1 mg/mL lysozyme (Sigma Aldrich) and 100 μg/mL DNasel-(Roche). The sample was incubated at 30° C. for 30 min to allow lysis to occur. Then, the lysate was cleared by centrifugation (15,000×g, 15 min, 4° C.) and incubated with 1.5 mL Ni-NTA agarose suspension (Qiagen) for 60 min at 4° C. The Ni-NTA agarose was washed with 10 mL Buffer A. Bound protein was eluted by applying a manual gradient of Buffer A supplemented with increasing concentrations of imidazole (Sigma Aldrich; 25/50/75/100/250 mM). Purified fractions were analyzed by SDS-PAGE followed by Coomassie staining to assess the purity.
Activity of the protein was assessed as follows:
Red/Green BODIPY® PC-A2 (Invitrogen, 1 mM in DMSO) was mixed with equal volumes of 1,2-Dioleoyl-sn-glycero-3-phosphocholine (DOPC; Sigma Aldrich, 10 mM in Ethanol) and 1,2-Dioleoyl-sn-glycero-3-phospho-rac-(1-glycerol) (DOPG; Sigma Aldrich, 10 mM in Ethanol) and 0.5 volumes of Cholesterol (CHOL; Sigma Aldrich, 10 mM in Ethanol) and vortexed for 5 s. The mixture (Red/Green BODIPY® PC-A2/DOPC/DOPG/CHOL) was diluted 1:91.4 in activity assay buffer (50 mM Tris/HCl pH 8.5, 100 mM NaCl) using a small-orifice pipette tip under constant vortexing. In the following, this preparation will be referred to as the “substrate solution”.
In order to evaluate their inhibitory potential, compounds were dissolved at 10 mM concentration in DMSO and directly spotted into assay plates (Corning, Cat. No. 3576) using acoustic liquid transfer (Labcyte Echo 525). Each compound was spotted at increasing concentrations, ranging from 2 nM to 50 μM (concentration in the final assay volume). 50 μl of PLA2G16 enzyme solution (diluted in activity buffer, supplemented with 5 mM L-Glutathione; Sigma Aldrich) was pre-incubated with compounds for 4 min., followed by addition of 50 μl of substrate solution. Fluorescence was recorded immediately after substrate addition for a total time of 10 min. using a SpectraMax M5 multimode reader (Excitation wavelength: 480 nm, emission wavelength: 530 nm). The relative increase of fluorescence over time is referred to as the enzyme activity. Half-maximal inhibitory concentrations (IC50) were derived by non-linear regression analysis using the drc package in R (R Development. Core Team, 2005).

In experiment [2] the test system is picornaviruses (CVB1, HRV-A2, HRV-A23, EV-68). Briefly: Anti-picornavirus cytopathic effect (CPE) reduction assay on HeLa H1 cells. It is filed as cell-based. Particulars: 48 h, category from averaging EC50 values of four picornaviruses (CVB1, HRV-A2, HRV-A23, EV68), second symbol in parentheses. As for the experimental part:
Anti-Picornavirus Assay in Mammalian Cell Culture
The antiviral activity of selected compounds was tested using a cytopathic effect (CPE) reduction assay on HeLa H1 cells (ATCC CRL-1958). Briefly, cells were seeded in 96-well dishes (2×10^4 cells/well) in DMEM medium (Life technologies) supplemented with 10% FBS and PenStrep solution (100 U/mL Penicillin and 100 μg/mL streptomycin) and incubated at 37° C., 5% CO2 overnight. The next day, cells were pre-treated with serial dilutions of the compound in DMEM medium supplemented with 2% FBS and PenStrep for 2 h at 37° C., 5% CO2. Next, cells were infected with virus (CVB1, HRV-A2, HRV-A23, EV-68) at an multiplicity of infection (MOI) which results in a complete virus-induced CPE within 2 days in control wells (infected and vehicle-treated). After 48 h, supernatants were aspirated and 50 μl/well of CellTiterBlue reagent (Promega) diluted 1:5 in DMEM+2% FBS, was added to the cells. Plates were returned to the incubator and allowed to develop for 1.5 h. After that, plates were equilibrated to RT and subsequently, fluorescence was recorded (Excitation wavelength: 560 nm; emission wavelength: 590 nm) using a SpectraMax M5 multimode plate reader. Viability of cells was calculated according to the formula: V=(RFUCpd−RFUVeh/(RFUM−RFUVeh), where RFUCpd refers to infected and compound-treated cells, RFUVeh to infected and vehicle-treated cells and RFUM to uninfected and vehicle treated cells. Half-maximal effective concentrations (EC50) were calculated by non-linear regression analysis using the drc package in R (R Development. Core Team, 2005). EC50 categories as presented in Table 2 were calculated by averaging the EC50 values from four picornaviruses (CVB1, HRV-A2, HRV-A23, EV68).
Background: Cytopathic effects are the visible damage that an infection or toxin causes in cultured cells.

The record followed here is US11180479B2 (HAPLOGEN GmbH, priority 2017, dated 2021).

Consider `CCNC(=O)C(=O)[C@H]1CN(c2ncccn2)C(=O)[C@@H]1Cc1ccccc1` (racemic) [FP-59, Rac-2-[(3R,4R)-4-benzyl-5-oxo-1-(pyrimidin-2-yl)pyrrolidin-3-yl]-N-ethyl-2-oxo-acetamide], for which the 50% inhibitory concentration (IC50) in experiment [1] is below 1000 nM. For the same molecule, the EC50 in experiment [2] is 1000 to 10000 nM.

On to `Cn1cnc(CN2C[C@H](C(=O)C(=O)NC3CC3)[C@@H](Cc3ccc(F)cc3)C2=O)n1` (racemic) [FP-51, Rac-N-cyclopropyl-2-[(3R,4R)-4-[(4-fluorophenyl)methyl]-1-[(1-methyl-1H-1,2,4-triazol-3-yl)methyl]-5-oxopyrrolidin-3-yl]-2-oxoacetamide], for which, in experiment [1], the IC50 was below 1000 nM. Besides, the EC50 in experiment [2] is 1000 to 10000 nM.

For `O=C(NCC1CC1)C(=O)[C@H]1CNC(=O)[C@@H]1Cc1ccc(F)cc1` (racemic) [FP-31, Rac-N-(cyclopropylmethyl)-2-[(3R,4R)-4-[(4-fluorophenyl)methyl]-5-oxopyrrolidin-3-yl]-2-oxoacetamide], the IC50 in experiment [1] is below 1000 nM. The EC50 in experiment [2] was below 1000 nM.

`O=C(NCC1CCC1)C(=O)[C@H]1CNC(=O)[C@@H]1c1ccccc1` (racemic) [FP-21, Rac-N-(cyclobutylmethyl)-2-oxo-2-[(3R,4S)-5-oxo-4-phenylpyrrolidin-3-yl]acetamide]: the 50% inhibitory concentration (IC50) in experiment [1] was below 1000 nM. Besides, the EC50 in experiment [2] is below 1000 nM.

`O=C(NC1CC1)C(=O)[C@@H]1CN(c2cnccn2)C(=O)[C@H]1Cc1ccccc1` (single isomer, unassigned) [FP-94]: the IC50 in experiment [1] is below 1000 nM. In experiment [2], the 50% effective concentration (EC50) was in the range of 1000 to 10000 nM.

For `CCCNC(=O)C(=O)[C@H]1CNC(=O)[C@@H]1c1ccccc1` (racemic) [FP-18, Rac-2-oxo-2-[(3R,4S)-5-oxo-4-phenylpyrrolidin-3-yl]-N-propylacetamide], in experiment [1], the IC50 is below 1000 nM. Moreover, the concentration for a half-maximal effect (EC50) in experiment [2] was in the range of 1000 to 10000 nM.

Turning to `O=C(NCC1CC1)C(=O)[C@H]1CN(c2cncnc2)C(=O)[C@@H]1c1ccccc1` (racemic) [FP-64, Rac-N-(cyclopropylmethyl)-2-oxo-2-[(3R,4S)-5-oxo-4-phenyl-1-(pyrimidin-5-yl)pyrrolidin-3-yl]acetamide], in experiment [1], the IC50 was below 1000 nM. Besides, the EC50 in experiment [2] fell in the range of 1000 to 10000 nM.

Consider `CC(C)CNC(=O)C(=O)[C@H]1CNC(=O)[C@@H]1c1ccccc1` (racemic) [FP-13, Rac-N-(2-methylpropyl)-2-oxo-2-[(3R,4S)-5-oxo-4-phenylpyrrolidin-3-yl]acetamide], for which the 50% inhibitory concentration (IC50) in experiment [1] is below 1000 nM. Moreover, the EC50 in experiment [2] was below 1000 nM.

Take `O=C(NCC(F)(F)C(F)(F)F)C(=O)[C@H]1CNC(=O)[C@@H]1c1ccccc1` (racemic) [FP-25, Rac-2-oxo-2-[(3R,4S)-5-oxo-4-phenylpyrrolidin-3-yl]-N-(2,2,3,3,3-pentafluoro-propyl)acetamide]: in experiment [1], the IC50 was below 1000 nM. In addition, the EC50 in experiment [2] was 1000 to 10000 nM.

With `O=C(NCC1CC1)C(=O)[C@@H]1CNC(=O)[C@H]1c1ccccc1` (single isomer, unassigned) [FP-85], the IC50 in experiment [1] was below 1000 nM. Moreover, the 50% effective concentration (EC50) in experiment [2] is above 10000 nM.

With `CCNC(=O)C(=O)[C@H]1CN(CC(F)F)C(=O)[C@@H]1Cc1ccccc1` (racemic) [FP-50, Rac-2-[(3R,4R)-4-benzyl-1-(2,2-difluoroethyl)-5-oxopyrrolidin-3-yl]-N-ethyl-2-oxoacetamide], the IC50 in experiment [1] is below 1000 nM. Besides, the half-maximal effective concentration (EC50) in experiment [2] was below 1000 nM.

On to `CC(F)(F)CNC(=O)C(=O)[C@H]1CN(c2cccc(=O)[nH]2)C(=O)[C@@H]1Cc1ccccc1` (racemic) [FP-74, Rac-2-[(3R,4R)-4-benzyl-5-oxo-1-(6-oxo-1,6-dihydropyridin-2-yl)pyrrolidin-3-yl]-N-(2,2-difluoropropyl)-2-oxoacetamide], for which the IC50 in experiment [1] is below 1000 nM. For the same molecule, in experiment [2], the 50% effective concentration (EC50) is below 1000 nM.

On to `O=C(NC1CC1)C(=O)[C@H]1CN(c2cc(Cl)cc(=O)[nH]2)C(=O)[C@@H]1Cc1ccccc1` (racemic) [FP-71, Rac-2-[(3R,4R)-4-benzyl-1-(4-chloro-6-oxo-1,6-dihydropyridin-2-yl)-5-oxopyrrolidin-3-yl]-N-cyclopropyl-2-oxoacetamide], for which, in experiment [1], the concentration for half-maximal inhibition (IC50) was below 1000 nM. In experiment [2], the EC50 was below 1000 nM.

For the molecule `CC(F)(F)CNC(=O)C(=O)[C@H]1CNC(=O)[C@@H]1c1ccccc1` (racemic) [FP-11, Rac-N-(2,2-difluoropropyl)-2-oxo-2-[(3R,4S)-5-oxo-4-phenylpyrrolidin-3-yl]acetamide], the IC50 in experiment [1] was below 1000 nM. Further, in experiment [2], the EC50 was 1000 to 10000 nM.

Consider `O=C(NC1CCCC1)C(=O)[C@H]1CNC(=O)[C@@H]1c1ccccc1` (racemic) [FP-79, Rac-N-cyclopentyl-2-oxo-2-[(3R,4S)-5-oxo-4-phenylpyrrolidin-3-yl]acetamide], for which the IC50 in experiment [1] was below 1000 nM. The EC50 in experiment [2] is below 1000 nM.

As for `O=C(NC1CC1)C(=O)[C@H]1CN(c2cnccn2)C(=O)[C@@H]1Cc1ccccc1` (racemic) [FP-57, Rac-2-[(3R,4R)-4-benzyl-5-oxo-1-(pyrazin-2-yl)pyrrolidin-3-yl]-N-cyclopropyl-2-oxoacetamide], in experiment [1], the IC50 was below 1000 nM. Further, the concentration for a half-maximal effect (EC50) in experiment [2] was below 1000 nM.

For the molecule `CC(C)ONC(=O)C(=O)[C@H]1CNC(=O)[C@@H]1Cc1ccccc1` (racemic) [FP-8, Rac-2-[(3R,4R)-4-benzyl-5-oxopyrrolidin-3-yl]-2-oxo-N-(propan-2-yloxy)acetamide], the half-inhibitory concentration (IC50) in experiment [1] is below 1000 nM. In addition, in experiment [2], the EC50 fell in the range of 1000 to 10000 nM.

Take `CC(C)CNC(=O)C(=O)[C@H]1CN(CC(=O)N(C)C)C(=O)[C@@H]1Cc1ccccc1` (single isomer, unassigned) [FP-92]: in experiment [1], the IC50 was below 1000 nM. Moreover, the EC50 in experiment [2] lay in the range of 1000 to 10000 nM.

Broadly, the IC50 is the midpoint of a concentration-inhibition curve. Broadly, the EC50 is the concentration needed to bring the measured effect to its halfway point.
